2 compounds from article PMC8230474, “Synthesis of Novel Acyl Derivatives of 3-(4,5,6,7-Tetrabromo-1H-benzimidazol-1-yl)propan-1-ols—Intracellular TBBi-Based CK2 Inhibitors with Proapoptotic Properties” (International Journal of Molecular Sciences, 2021) can be followed below.

Where two headings read alike, the source gives them in different places.

For one assay, the target named is PIM1 (Homo sapiens, UniProt P11309). Nature of the assay: Radiometric (P81 filter isotopic) kinase assay, PIM1. It counts as biochemical. The conditions noted are these: read-out: Residual Activity of the Enzyme PIM1; for remaining activity at 5 µM: 5 µM compound; for remaining activity at 10 µM: 10 µM compound.
Assay [1] addresses CK2 holoenzyme (CK2 α2β2) (Homo sapiens, UniProt P68400). Nature of the assay: Radiometric (P81 filter isotopic) kinase assay, CK2 holoenzyme. The conditions noted are these: read-out: Residual Activity of the Enzyme CK2 α2β2; for remaining activity at 5 µM: 5 µM compound; for remaining activity at 10 µM: 10 µM compound. It counts as biochemical.
For assay [2], the system named is protein kinase CK2 in MCF-7 cells. Nature of the assay: Intracellular inhibition of CK2, Western blot of p-Ser529 p65 and p-Ser129 Akt1, MCF-7. It counts as cell-based, human. The source says:
We observed an inhibition of CK2 in both cell lines; however, the lower efficiency of CK2 inhibition was detected in MCF-7 considering the extent of Akt1 phosphorylation. The relative level of the phosphorylation of the tested proteins in MDA-MB-231 cells was in the range of 0.32 to 0.80 for p-Ser529 p65 and 0.41 to 0.73 for p-Ser129 Akt1, whereas in MCF-7 cells it was in the range of 0.33 to 0.78 for p-Ser529 p65 and 0.82 to 1.23 for p-Ser129 Akt1, respectively. The lowest phosphorylation levels of the tested proteins were detected in MDA-MB-231 cells for compound 6b with the relative level of 0.41 for Ser129 Akt1 as well as for compound 6c with the relative level of 0.32 for p-Ser529 p65. Among the tested proteins, the lowest extent of phosphorylation in MCF-7 cells was detected for 6b with the relative level of 0.33 for p-Ser529 p65, and for 6a with the relative level of 0.82 for Ser129 Akt1.
Considering an inefficient inhibition of CK2 in MCF-7, we evaluated an inhibition of CK2 in this cell line after 72 h. […] The relative levels were in the range of 0.17 to 0.8 for p-Ser529 p65 and 0.19 to 0.79 for p-Ser129 Akt1.
The MCF-7 cells growing exponentially were seeded at 4.8 × 10^5 cells in 6-cm-diameter plates. Subsequently, compounds were added in a final concentration of 0.5% DMSO. After incubation, floating cells were collected and cell monolayer was washed three times in ice-cold PBS and the cells were scraped, combined with floating cells and lysed in RIPA buffer consisting of 50 mM Tris-HCl (pH 7.4), 1% NP-40, 0.5% sodium deoxycholate, 0.1% SDS, 150 mM NaCl, 2 mM EDTA, 50 mM NaF, 0.2 mM sodium orthovanadate, and protease inhibitors cocktail. Subsequently, cells were sonicated (three times for 15 s), centrifuged at 20,000× g for 15 min at 4 °C, and the supernatants were collected and stored at −80 °C. The protein concentration was determined using Bradford assay. Then, supernatants were incubated with the Laemmli buffer for 5 min at 98 °C. Equal amounts of total protein (10 to 20 μg) were analyzed by SDS-PAGE, and subsequently, Western blotting was performed using primary antibodies in blocking buffer containing either 3% BSA (bovine serum albumin) or 3% milk in TBS-T (Tris-buffered saline (10 mM Tris-HCl (pH 8), 150 mM NaCl) containing 0.1% Tween 20 or 0.2% Triton X-100) for 1 h. After overnight incubation at 4 °C with the primary antibodies, the membranes were washed with TBS-T and probed with the respective secondary antibodies. The ECL substrate was used for detection and immunoblots were scanned using G Box Chemi (Syngene, Cambridge, UK) with GeneSys software (Syngene, Cambridge, UK) or were developed with the use of X-rays films. UV-irradiated Jurkat cells were used as a positive control in Western blot analysis of c-PARP1. After 2 h, one-minute UV-irradiated Jurkat leukemic T-cell line was lysed and subjected to analysis.
For densitometry, immunoblots were quantified using the Fiji distribution of the ImageJ 1.52a software (National Institutes of Health, Bethesda, MD, USA, and the University of Wisconsin, Madison, WI, USA). Phosphorylated protein densities were normalized to GAPDH densities, assuming 1 for untreated cells and then they were converted to a percent of the appropriate control.
(In general: In western blotting, separated proteins are transferred to a membrane and probed.)

Another assay concerns MDA-MB-231 cells. Nature of the assay: MTT viability assay, MDA-MB-231. It counts as cell-based. The note with it: Homo sapiens, read-out: EC50 ± SD MDA-MB-231. The method, then:
To test the anti-cancer effect of the TBBi derivatives, we treated the MCF-7 and MDA-MB-231 cells with the newly synthesized esters and previously reported compounds [34, 57] at the concentration range of 3.125 to 200 µM for 24 h, 48 h and 72 h. Additionally, the range of concentrations was extended by additional lower concentrations in MCF-7 for compound 4 with the minimum concentration of 0.195 µM. […] The EC50 values, describing the half maximal effective concentration of each tested compound, were calculated and are summarized in Table 2. […] We observed that the EC50 values increase in both cell lines with the elongation of fatty acids chain length in the tested compounds, thus strongly correlating with the decrease of their solubility in biological media as characterized by logS parameter (Table 2). The second reason for the decreased biological activity of the longer-chain aliphatic esters might be attributed to their greater resistance toward intracellular hydrolysis, which directly influences the slower release of the active form of the corresponding CK2 inhibitors. […] However, none of the tested compounds, except for compound 5, decreased the viability of both cell lines in a time-dependent manner (Figure 4).
MCF-7 and MDA-MB-231 were cultured in high-glucose Dulbecco’s modified Eagle medium (DMEM, Lonza, Basel, Switzerland) supplemented with 10% fetal bovine serum (FBS, EuroClone, Siziano, Italy)), 2 mM L-glutamine, and antibiotics (100 U/mL penicillin, 100 µg/mL streptomycin) (Sigma-Aldrich Chemical Company (St. Louis, MO, USA). Cells were grown in 75-cm^2 cell culture flasks (Sarstedt, Nümbrecht, Germany) in a humidified atmosphere of CO2/air (5%/95%) at 37 °C. All the experiments were performed in exponentially growing cultures. Stock solutions of the test compounds were prepared in DMSO and stored in −80 °C for a maximum of one month. For the cytotoxicity studies, stock solutions of the tested compounds were diluted 200-fold with the proper culture medium to obtain the final concentrations.
After incubation with the tested compounds, an MTT test was performed as described previously. Optical densities were measured at 570 nm using BioTek microplate reader (Winooski, VT, USA). All measurements were carried out in a minimum of three biological replicates.

A further assay has as its system MCF-7 cells. Nature of the assay: Cleaved PARP1 Western blot, MCF-7. It counts as cell-based, human. The conditions noted are these: MCF-7, 72 h treatment, compound at its EC50. As to the method: In order to evaluate the proapoptotic properties of the newly synthesized derivatives, we analyzed the level of cleaved PARP1 [c-PARP1, nuclear poly (ADP-ribose) polymerase 1], the hallmark of apoptotic cells.
Considering the lack of significant effect of the tested compounds in MCF-7 cells after 24-h treatment, we additionally evaluated c-PARP1 level in this cell line after 72 h of treatment. […] It should be noted that the highest level of c-PARP up to almost 20-fold higher than in the control was detected in the cell culture treated with a derivative 6b.
The MCF-7 cells growing exponentially were seeded at 4.8 × 10^5 cells in 6-cm-diameter plates. Subsequently, compounds were added in a final concentration of 0.5% DMSO. […] The protein concentration was determined using Bradford assay. […] Equal amounts of total protein (10 to 20 μg) were analyzed by SDS-PAGE, and subsequently, Western blotting was performed using primary antibodies in blocking buffer containing either 3% BSA (bovine serum albumin) or 3% milk in TBS-T (Tris-buffered saline (10 mM Tris-HCl (pH 8), 150 mM NaCl) containing 0.1% Tween 20 or 0.2% Triton X-100) for 1 h. […]
For densitometry, immunoblots were quantified using the Fiji distribution of the ImageJ 1.52a software (National Institutes of Health, Bethesda, MD, USA, and the University of Wisconsin, Madison, WI, USA). […]

Where [3] appears, read: MCF-7, 72 h treatment, compound at its EC50, relative to untreated control.

Chain of CK2 holoenzyme (CK2 α2β2) (P68400 whole entry): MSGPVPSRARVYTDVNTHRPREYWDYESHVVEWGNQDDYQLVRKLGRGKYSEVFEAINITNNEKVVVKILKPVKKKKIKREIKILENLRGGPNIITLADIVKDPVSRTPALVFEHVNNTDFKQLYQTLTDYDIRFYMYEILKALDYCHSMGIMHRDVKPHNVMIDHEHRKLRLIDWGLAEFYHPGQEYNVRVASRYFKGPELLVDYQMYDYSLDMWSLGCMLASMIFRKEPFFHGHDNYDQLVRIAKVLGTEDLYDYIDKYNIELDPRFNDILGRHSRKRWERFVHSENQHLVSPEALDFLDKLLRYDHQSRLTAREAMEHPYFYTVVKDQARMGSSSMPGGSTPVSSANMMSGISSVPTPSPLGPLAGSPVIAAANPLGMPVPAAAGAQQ
Chain of CK2 holoenzyme (CK2 α2β2) (P67870 whole entry partner): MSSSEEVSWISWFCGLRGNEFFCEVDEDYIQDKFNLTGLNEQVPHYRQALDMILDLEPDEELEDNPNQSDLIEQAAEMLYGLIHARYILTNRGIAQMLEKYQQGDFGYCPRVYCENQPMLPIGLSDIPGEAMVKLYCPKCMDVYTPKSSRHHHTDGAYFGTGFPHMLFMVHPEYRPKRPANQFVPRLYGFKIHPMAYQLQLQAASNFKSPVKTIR
Chain of PIM1 (P11309 whole entry, species assumed): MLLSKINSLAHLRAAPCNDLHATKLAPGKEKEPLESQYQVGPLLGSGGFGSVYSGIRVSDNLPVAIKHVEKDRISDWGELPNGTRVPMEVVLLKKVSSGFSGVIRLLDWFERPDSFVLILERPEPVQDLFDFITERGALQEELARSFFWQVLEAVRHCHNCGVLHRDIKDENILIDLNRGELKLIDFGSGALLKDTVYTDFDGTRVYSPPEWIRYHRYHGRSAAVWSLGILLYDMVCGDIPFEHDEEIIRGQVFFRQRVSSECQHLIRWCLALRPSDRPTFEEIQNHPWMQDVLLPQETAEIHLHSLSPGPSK

The term EC50 denotes the concentration that produces a half-maximal response. On to `CCCCCCCC(=O)OCCCn1cnc2c(Br)c(Br)c(Br)c(Br)c21` [Compound 3c, 3-(4,5,6,7-Tetrabromo-1H-benzimidazol-1-yl)propyl octanoate], for which the remaining activity at 5 µM at PIM1 came out at 99.1 ± 15.7%; in assay [1], 95.3 ± 2.9%. Besides, the remaining activity at 10 µM on PIM1 came to 95.4 ± 4%; in assay [1], 92.7 ± 3.5%. Moreover, the “relative level of p-Ser129 Akt1” value in assay [2] (setting [3]) stood at 0.19. Besides, the “relative level of p-Ser529 p65” value in assay [2] (setting [3]) is 0.17. In addition, the EC50 is 45.1 ± 5.43 µM with MDA-MB-231 cells (24 h), 23.7 ± 3.97 µM with MDA-MB-231 cells (48 h) and 32.8 ± 3.25 µM in the assay on MDA-MB-231 cells (72 h). In the assay on MCF-7 cells, the “level of c-PARP1 relative to control” value was “significant increase”.

For the compound `CCCCCC(=O)OCCCn1c(C)nc2c(Br)c(Br)c(Br)c(Br)c21` [Compound 6b, (4,5,6,7-Tetrabromo-2-methyl-1H-benzimidazol-1-yl)propyl hexanoate], the remaining activity at 5 µM at PIM1 came to 62.4 ± 8.3%; in assay [1] it was 85.4 ± 0.6%. Also, the remaining activity at 10 µM at PIM1 came to 46.4 ± 2.7%; in assay [1], 71.4 ± 0.2%. For the same compound, the “relative level of p-Ser529 p65” value in assay [2] (MCF-7, 24 h treatment, compound at its 72-h EC50, relative to untreated control) is recorded as 0.33. Moreover, the EC50 with MDA-MB-231 cells (24 h) is 51.4 ± 8.22 µM; in the assay with MDA-MB-231 cells (48 h), 21.2 ± 2.4 µM; in the assay with MDA-MB-231 cells (72 h), 22.1 ± 3.18 µM. The “level of c-PARP1 relative to control” value in the assay on MCF-7 cells was roughly 20 fold.
